Reference: ChEMBL document CHEMBL1201861, “Genomics of Drug Sensitity in Cancer screening data, Wellcome Trust Sanger Institute”

The molecules below were run on EVSA-T (assay: cells). Conditions: Homo sapiens, EVSA-T.
Type: functional, cell-based, Homo sapiens
Description: SANGER: Inhibition of human EVSA-T cell growth in a cell viability assay.

| Structure (SMILES) | IC50 [nM] |
| --- | --- |
| COc1ccc(N(C(=O)Oc2c(C)cccc2C)c2ccnc(Nc3ccc(N4CCN(C)CC4)cc3)n2)c(OC)c1 | > 5120 |
| C[C@@H](Oc1cc(-c2cnn(C3CCNCC3)c2)cnc1N)c1c(Cl)ccc(F)c1Cl [CRIZOTINIB] | > 2000 |
| NC(=O)c1cccc(-c2cc(Nc3ccc(OC(F)(F)F)cc3)ncn2)c1 | > 1280 |
| Cc1ccc(NC(=O)c2ccc(CN3CCN(C)CC3)cc2)cc1Nc1nccc(-c2cccnc2)n1 [IMATINIB] | > 2000 |
| Cc1cc(N2CCOCC2)cc2[nH]c(-c3c(NC[C@@H](O)c4cccc(Cl)c4)cc[nH]c3=O)nc12 | > 5120 |

These molecules were tested on P31-FUJ (assay: cells). Conditions: Homo sapiens, P31-FUJ.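 Also: growth inhibition of P31-FUJ cells, read out with a viability assay.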
Type: functional, cell-based, Homo sapiens
Description: SANGER: Inhibition of human P31-FUJ cell growth in a cell viability assay.

| Structure (SMILES) | IC50 [nM] |
| --- | --- |
| COc1ccc(N(C(=O)Oc2c(C)cccc2C)c2ccnc(Nc3ccc(N4CCN(C)CC4)cc3)n2)c(OC)c1 | > 5120 |
| C[C@@H](Oc1cc(-c2cnn(C3CCNCC3)c2)cnc1N)c1c(Cl)ccc(F)c1Cl [CRIZOTINIB] | > 2000 |
| NC(=O)c1cccc(-c2cc(Nc3ccc(OC(F)(F)F)cc3)ncn2)c1 | > 1280 |
| Cc1ccc(NC(=O)c2ccc(CN3CCN(C)CC3)cc2)cc1Nc1nccc(-c2cccnc2)n1 [IMATINIB] | > 2000 |
| Cc1cc(N2CCOCC2)cc2[nH]c(-c3c(NC[C@@H](O)c4cccc(Cl)c4)cc[nH]c3=O)nc12 | > 5120 |

What follows are molecules tested on NCI-H187 (assay: cells). Conditions: Homo sapiens, NCI-H187.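 Also: growth inhibition of NCI-H187 cells, read out as cell viability.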
Type: functional, cell-based, Homo sapiens
Description: SANGER: Inhibition of human NCI-H187 cell growth in a cell viability assay.

| Structure (SMILES) | IC50 [nM] |
| --- | --- |
| COc1ccc(N(C(=O)Oc2c(C)cccc2C)c2ccnc(Nc3ccc(N4CCN(C)CC4)cc3)n2)c(OC)c1 | > 5120 |
| C[C@@H](Oc1cc(-c2cnn(C3CCNCC3)c2)cnc1N)c1c(Cl)ccc(F)c1Cl [CRIZOTINIB] | > 2000 |
| NC(=O)c1cccc(-c2cc(Nc3ccc(OC(F)(F)F)cc3)ncn2)c1 | > 1280 |
| Cc1ccc(NC(=O)c2ccc(CN3CCN(C)CC3)cc2)cc1Nc1nccc(-c2cccnc2)n1 [IMATINIB] | > 2000 |
| Cc1cc(N2CCOCC2)cc2[nH]c(-c3c(NC[C@@H](O)c4cccc(Cl)c4)cc[nH]c3=O)nc12 | 2340 |

The molecules below were run on DMS-79 (assay: cells). Conditions: Homo sapiens, DMS-79.
Type: functional, cell-based, Homo sapiens
Description: SANGER: Inhibition of human DMS-79 cell growth in a cell viability assay.

| Structure (SMILES) | IC50 [nM] |
| --- | --- |
| COc1ccc(N(C(=O)Oc2c(C)cccc2C)c2ccnc(Nc3ccc(N4CCN(C)CC4)cc3)n2)c(OC)c1 | > 5120 |
| C[C@@H](Oc1cc(-c2cnn(C3CCNCC3)c2)cnc1N)c1c(Cl)ccc(F)c1Cl [CRIZOTINIB] | > 2000 |
| NC(=O)c1cccc(-c2cc(Nc3ccc(OC(F)(F)F)cc3)ncn2)c1 | > 1280 |
| Cc1ccc(NC(=O)c2ccc(CN3CCN(C)CC3)cc2)cc1Nc1nccc(-c2cccnc2)n1 [IMATINIB] | > 2000 |
| Cc1cc(N2CCOCC2)cc2[nH]c(-c3c(NC[C@@H](O)c4cccc(Cl)c4)cc[nH]c3=O)nc12 | > 5120 |

The molecules below were run on EW-22 (assay: cells). Conditions: Homo sapiens.
Type: functional, cell-based
Description: SANGER: Inhibition of human EW-22 cell growth in a cell viability assay.

| Structure (SMILES) | IC50 [nM] |
| --- | --- |
| C[C@@H](Oc1cc(-c2cnn(C3CCNCC3)c2)cnc1N)c1c(Cl)ccc(F)c1Cl [CRIZOTINIB] | > 2000 |
| Cc1ccc(NC(=O)c2ccc(CN3CCN(C)CC3)cc2)cc1Nc1nccc(-c2cccnc2)n1 [IMATINIB] | > 2000 |

Each molecule was assayed on HC-1 (assay: cells). Conditions: Homo sapiens, HC-1.
Type: functional, cell-based, Homo sapiens
Description: SANGER: Inhibition of human HC-1 cell growth in a cell viability assay.

| Structure (SMILES) | IC50 [nM] |
| --- | --- |
| COc1ccc(N(C(=O)Oc2c(C)cccc2C)c2ccnc(Nc3ccc(N4CCN(C)CC4)cc3)n2)c(OC)c1 | > 5120 |
| C[C@@H](Oc1cc(-c2cnn(C3CCNCC3)c2)cnc1N)c1c(Cl)ccc(F)c1Cl [CRIZOTINIB] | > 2000 |
| NC(=O)c1cccc(-c2cc(Nc3ccc(OC(F)(F)F)cc3)ncn2)c1 | > 1280 |
| Cc1ccc(NC(=O)c2ccc(CN3CCN(C)CC3)cc2)cc1Nc1nccc(-c2cccnc2)n1 [IMATINIB] | > 2000 |
| Cc1cc(N2CCOCC2)cc2[nH]c(-c3c(NC[C@@H](O)c4cccc(Cl)c4)cc[nH]c3=O)nc12 | > 5120 |

What follows are molecules tested on NCCIT (assay: SANGER: Inhibition of human NCCIT cell growth in a cell viability assay.). Conditions: Homo sapiens, NCCIT.
Type: functional, cell-based

| Structure (SMILES) | IC50 [nM] |
| --- | --- |
| COc1ccc(N(C(=O)Oc2c(C)cccc2C)c2ccnc(Nc3ccc(N4CCN(C)CC4)cc3)n2)c(OC)c1 | > 5120 |
| C[C@@H](Oc1cc(-c2cnn(C3CCNCC3)c2)cnc1N)c1c(Cl)ccc(F)c1Cl [CRIZOTINIB] | > 2000 |
| NC(=O)c1cccc(-c2cc(Nc3ccc(OC(F)(F)F)cc3)ncn2)c1 | > 1280 |
| Cc1ccc(NC(=O)c2ccc(CN3CCN(C)CC3)cc2)cc1Nc1nccc(-c2cccnc2)n1 [IMATINIB] | > 2000 |
| Cc1cc(N2CCOCC2)cc2[nH]c(-c3c(NC[C@@H](O)c4cccc(Cl)c4)cc[nH]c3=O)nc12 | 3830 |

What follows are molecules tested on BL-41 (assay: cells). Conditions: Homo sapiens.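 Also: growth inhibition of human BL-41 cells, read out with a cell viability assay.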
Type: functional, cell-based
Description: SANGER: Inhibition of human BL-41 cell growth in a cell viability assay.

| Structure (SMILES) | IC50 [nM] |
| --- | --- |
| COc1ccc(N(C(=O)Oc2c(C)cccc2C)c2ccnc(Nc3ccc(N4CCN(C)CC4)cc3)n2)c(OC)c1 | 1000 |
| C[C@@H](Oc1cc(-c2cnn(C3CCNCC3)c2)cnc1N)c1c(Cl)ccc(F)c1Cl [CRIZOTINIB] | > 2000 |
| NC(=O)c1cccc(-c2cc(Nc3ccc(OC(F)(F)F)cc3)ncn2)c1 | > 1280 |
| Cc1ccc(NC(=O)c2ccc(CN3CCN(C)CC3)cc2)cc1Nc1nccc(-c2cccnc2)n1 [IMATINIB] | > 2000 |
| Cc1cc(N2CCOCC2)cc2[nH]c(-c3c(NC[C@@H](O)c4cccc(Cl)c4)cc[nH]c3=O)nc12 | > 5120 |

Each molecule was assayed on NALM-6 (assay: cells). Conditions: Homo sapiens, NALM-6.
Type: functional, cell-based, Homo sapiens
Description: SANGER: Inhibition of human NALM-6 cell growth in a cell viability assay.

| Structure (SMILES) | IC50 [nM] |
| --- | --- |
| COc1ccc(N(C(=O)Oc2c(C)cccc2C)c2ccnc(Nc3ccc(N4CCN(C)CC4)cc3)n2)c(OC)c1 | > 5120 |
| C[C@@H](Oc1cc(-c2cnn(C3CCNCC3)c2)cnc1N)c1c(Cl)ccc(F)c1Cl [CRIZOTINIB] | > 2000 |
| NC(=O)c1cccc(-c2cc(Nc3ccc(OC(F)(F)F)cc3)ncn2)c1 | > 1280 |
| Cc1ccc(NC(=O)c2ccc(CN3CCN(C)CC3)cc2)cc1Nc1nccc(-c2cccnc2)n1 [IMATINIB] | > 2000 |
| Cc1cc(N2CCOCC2)cc2[nH]c(-c3c(NC[C@@H](O)c4cccc(Cl)c4)cc[nH]c3=O)nc12 | 2970 |

Each molecule was assayed on HCC1599 (assay: cells). Conditions: Homo sapiens, HCC1599.
Type: functional, cell-based, Homo sapiens
Description: SANGER: Inhibition of human HCC1599 cell growth in a cell viability assay.

| Structure (SMILES) | IC50 [nM] |
| --- | --- |
| COc1ccc(N(C(=O)Oc2c(C)cccc2C)c2ccnc(Nc3ccc(N4CCN(C)CC4)cc3)n2)c(OC)c1 | > 5120 |
| C[C@@H](Oc1cc(-c2cnn(C3CCNCC3)c2)cnc1N)c1c(Cl)ccc(F)c1Cl [CRIZOTINIB] | > 2000 |
| NC(=O)c1cccc(-c2cc(Nc3ccc(OC(F)(F)F)cc3)ncn2)c1 | > 1280 |
| Cc1ccc(NC(=O)c2ccc(CN3CCN(C)CC3)cc2)cc1Nc1nccc(-c2cccnc2)n1 [IMATINIB] | > 2000 |
| Cc1cc(N2CCOCC2)cc2[nH]c(-c3c(NC[C@@H](O)c4cccc(Cl)c4)cc[nH]c3=O)nc12 | > 5120 |

Each molecule was assayed on NCI-H719 (assay: cells). Conditions: Homo sapiens, NCI-H719.
Type: functional, cell-based, Homo sapiens
Description: SANGER: Inhibition of human NCI-H719 cell growth in a cell viability assay.

| Structure (SMILES) | IC50 [nM] |
| --- | --- |
| COc1ccc(N(C(=O)Oc2c(C)cccc2C)c2ccnc(Nc3ccc(N4CCN(C)CC4)cc3)n2)c(OC)c1 | > 5120 |
| C[C@@H](Oc1cc(-c2cnn(C3CCNCC3)c2)cnc1N)c1c(Cl)ccc(F)c1Cl [CRIZOTINIB] | > 2000 |
| NC(=O)c1cccc(-c2cc(Nc3ccc(OC(F)(F)F)cc3)ncn2)c1 | > 1280 |
| Cc1ccc(NC(=O)c2ccc(CN3CCN(C)CC3)cc2)cc1Nc1nccc(-c2cccnc2)n1 [IMATINIB] | > 2000 |
| Cc1cc(N2CCOCC2)cc2[nH]c(-c3c(NC[C@@H](O)c4cccc(Cl)c4)cc[nH]c3=O)nc12 | > 5120 |

Each molecule was assayed on NCI-H889 (assay: cells). Conditions: Homo sapiens, NCI-H889.
Type: functional, cell-based, Homo sapiens
Description: SANGER: Inhibition of human NCI-H889 cell growth in a cell viability assay.

| Structure (SMILES) | IC50 [nM] |
| --- | --- |
| COc1ccc(N(C(=O)Oc2c(C)cccc2C)c2ccnc(Nc3ccc(N4CCN(C)CC4)cc3)n2)c(OC)c1 | > 5120 |
| C[C@@H](Oc1cc(-c2cnn(C3CCNCC3)c2)cnc1N)c1c(Cl)ccc(F)c1Cl [CRIZOTINIB] | > 2000 |
| NC(=O)c1cccc(-c2cc(Nc3ccc(OC(F)(F)F)cc3)ncn2)c1 | > 1280 |
| Cc1ccc(NC(=O)c2ccc(CN3CCN(C)CC3)cc2)cc1Nc1nccc(-c2cccnc2)n1 [IMATINIB] | > 2000 |
| Cc1cc(N2CCOCC2)cc2[nH]c(-c3c(NC[C@@H](O)c4cccc(Cl)c4)cc[nH]c3=O)nc12 | > 5120 |

Each molecule was assayed on IST-SL2 (assay: cells). Conditions: Homo sapiens, IST-SL2.
Type: functional, cell-based, Homo sapiens
Description: SANGER: Inhibition of human IST-SL2 cell growth in a cell viability assay.

| Structure (SMILES) | IC50 [nM] |
| --- | --- |
| COc1ccc(N(C(=O)Oc2c(C)cccc2C)c2ccnc(Nc3ccc(N4CCN(C)CC4)cc3)n2)c(OC)c1 | 1470 |
| C[C@@H](Oc1cc(-c2cnn(C3CCNCC3)c2)cnc1N)c1c(Cl)ccc(F)c1Cl [CRIZOTINIB] | > 2000 |
| NC(=O)c1cccc(-c2cc(Nc3ccc(OC(F)(F)F)cc3)ncn2)c1 | > 1280 |
| Cc1ccc(NC(=O)c2ccc(CN3CCN(C)CC3)cc2)cc1Nc1nccc(-c2cccnc2)n1 [IMATINIB] | > 2000 |
| Cc1cc(N2CCOCC2)cc2[nH]c(-c3c(NC[C@@H](O)c4cccc(Cl)c4)cc[nH]c3=O)nc12 | > 5120 |

These molecules were tested on WSU-NHL (assay: cells). Conditions: Homo sapiens, WSU-NHL.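 Also: growth inhibition of human WSU-NHL cells, read out with a cell viability assay.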
Type: functional, cell-based, Homo sapiens
Description: SANGER: Inhibition of human WSU-NHL cell growth in a cell viability assay.

| Structure (SMILES) | IC50 [nM] |
| --- | --- |
| COc1ccc(N(C(=O)Oc2c(C)cccc2C)c2ccnc(Nc3ccc(N4CCN(C)CC4)cc3)n2)c(OC)c1 | > 5120 |
| C[C@@H](Oc1cc(-c2cnn(C3CCNCC3)c2)cnc1N)c1c(Cl)ccc(F)c1Cl [CRIZOTINIB] | > 2000 |
| NC(=O)c1cccc(-c2cc(Nc3ccc(OC(F)(F)F)cc3)ncn2)c1 | > 1280 |
| Cc1ccc(NC(=O)c2ccc(CN3CCN(C)CC3)cc2)cc1Nc1nccc(-c2cccnc2)n1 [IMATINIB] | > 2000 |
| Cc1cc(N2CCOCC2)cc2[nH]c(-c3c(NC[C@@H](O)c4cccc(Cl)c4)cc[nH]c3=O)nc12 | > 5120 |

These molecules were tested on MFH-ino (assay: cells). Conditions: Homo sapiens, MFH-ino.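 Also: growth inhibition of human MFH-ino cells, read out by a cell viability assay.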
Type: functional, cell-based, Homo sapiens
Description: SANGER: Inhibition of human MFH-ino cell growth in a cell viability assay.

| Structure (SMILES) | IC50 [nM] |
| --- | --- |
| COc1ccc(N(C(=O)Oc2c(C)cccc2C)c2ccnc(Nc3ccc(N4CCN(C)CC4)cc3)n2)c(OC)c1 | 239 |
| C[C@@H](Oc1cc(-c2cnn(C3CCNCC3)c2)cnc1N)c1c(Cl)ccc(F)c1Cl [CRIZOTINIB] | > 2000 |
| NC(=O)c1cccc(-c2cc(Nc3ccc(OC(F)(F)F)cc3)ncn2)c1 | > 1280 |
| Cc1ccc(NC(=O)c2ccc(CN3CCN(C)CC3)cc2)cc1Nc1nccc(-c2cccnc2)n1 [IMATINIB] | > 2000 |
| Cc1cc(N2CCOCC2)cc2[nH]c(-c3c(NC[C@@H](O)c4cccc(Cl)c4)cc[nH]c3=O)nc12 | 344 |
